Results published in US20260091097A1, “COMBINATION TREATMENT REGIMES FOR TREATING CANCER” (Barinthus Biotherapeutics North America, Inc., priority 2022, published 2026).

Experiments:
Format in all cases: in vivo, mouse
cDC1s = test: Flow cytometry of DC numbers and maturation after vaccination; conditions: IV route; comparable to SNP-IV
Procedure: For the mononuclear phagocyte uptake analysis, cells were assessed for viability with the LIVE/DEAD Fixable Blue Dead Cell Stain Kit for 10 min at room temperature. After FcR blocking, cells were stained for 20 minutes at room temperature with the following surface antibodies: NK1.1 (clone PK136), CD19 (clone 1D3), CD3 (clone 145-2C11), Ly6G (clone 1A8), CD45 (clone 30-F11), Siglec-H (clone 440c), CD86 (clone GL1), CD11c (clone L3), CD80 (clone 16-10A1), B220 (clone RA3-6B2), CD64 (clone X54-5/7.1), CD11b (clone MI/70) and Ly6C (clone AL-21) purchased from BD Biosciences, CCR7 (clone 4B12), MHC class II (I-A/I-E, clone M5/114.15.2), CD169 (clone 3D6.112) and XCR1 (clone ZET) purchased from BioLegend, and CD172a (clone P84) from Thermo Fisher Scientific. The stain was washed off and cells were then fixed in 0.5% PFA in PBS until they were acquired on an LSRFortessa X50 (BD Biosciences) using the FACSDiva software v8.0.1 (BD Biosciences).
Given the systemic distribution of vaccine after SNP-IV but not SNP-SC, the levels of pro-inflammatory cytokines in the sera of mice were assessed at 6 hours after vaccination (FIG. 3F). High levels of systemic IFNα and IL-12 were measured by ELISAs after SNP-IV, especially at the higher dose of 32 nmol that is used in the therapeutic studies, compared to SNP-SC (FIG. 3F). […]

[1] = tested on: neoAg-specific CD8+ T cells; test: Flow cytometry of tetramer+ CD8+ T cells after SNP vaccination; conditions: IV administration after SNP-SC prime, still with anti-tumor efficacy
Procedure: For T cell tetramer analysis, cells were assessed for viability with LIVE/DEAD Fixable Blue Dead Cell Stain Kit (Invitrogen) in PBS containing 50 nM dasatinib (STEMCELL Technologies) for 30 min at room temperature. Samples were then washed and blocked with anti-CD16/CD32 (BD Biosciences). Cells were then stained with fluorescently conjugated tetramer in cell staining buffer (PBS and 2% FCS) containing 50 nM dasatinib to enhance staining. Cells were simultaneously stained with the following surface antibodies to: CD8 (clone 53-6.7), PD-1 (clone 29F.A12), Tim-3 (clone RMT3-23), CD44 (clone IM7), CD39 (clone Duha59), and NKG2A (clone 16A11) purchased from BioLegend and CD4 (clone RM4-4) purchased from BD Biosciences. After a 1-h incubation at 4° C., cells were washed twice in cell staining buffer, fixed and permeabilized using the FoxP3 transcription factor staining buffer set (eBioscience). […]
To assess whether there are differences in the magnitude of neoAg-specific CD8^+ T cells after SNP-SC or SNP-IV boost, whole blood was sampled on day 21, a week after the boost and measured the tetramer^+ population by flow cytometry (FIG. 1G). […]
As markers of exhaustion and antigen experience on CD8^+ T cells are important for improving the therapeutic effects of immune checkpoint blockade, the expression of PD-1, TIM-3 and NKG2A post vaccination were assessed. […]

MC38 tumors = test: Therapeutic MC38 tumor model, SNP-7/8a prime day 7 and boost day 14 together with anti-PD-L1; conditions: SNP-SC (Reps1) prime, IV boost 7 days later without tumor antigen
Procedure: For each tumor implantation, a frozen cell aliquot was thawed and cultured in MC38 media at 37° C. and 5% CO2, passaged once and collected using trypsin EDTA (Gibco). Then, […] in sterile PBS per mouse were implanted subcutaneously on the right flank. Tumors were measured twice a week using digital calipers. Tumor volume was estimated using the formula: (tumor volume=short×short×long/2). Animals were killed when tumors surpassed 1,000 mm^3.
Mice were implanted with MC38 tumors on the subcutaneous flank and were treated on day 7 (prime) and day 14 (boost) with SNP-7/8a containing Reps1, an MC38 neoAg, together with anti-PD-L1 (FIG. 1A). […] To confirm and extend these findings in a different tumor model, mice were implanted with TC-1 tumors and treated with SNP-7/8a containing HPV E6 antigen.
To assess the requirement for antigen at the time of boost, mice were primed with SNP-SC containing Reps1, followed by SNP-IV containing an irrelevant antigen (FIG. 1E).

## polyIC:LC
cDC1s
  DC maturation in the spleen and tumor-draining LN: able to induce DC maturation
[1]
  CD8+ T cell responses compared to the other vaccinated groups: ten-fold lower
MC38 tumors
  Tumor growth: significantly mediate tumor regression and prolong survival
